Measured values published in ChEMBL document CHEMBL3627662, “Ligand-Orientation Based Fragment Selection in STD NMR Screening” (J Med Chem, 2015).
The source made the active and inactive calls. The calls are words filed in the database; no cut-off is given here.

Experiments:
[1] = target: T1, Glycogen phosphorylase, muscle form (Oryctolagus cuniculus) (UniProt P00489); experiment: Binding affinity to rabbit muscle glycogen phosphorylase by STD NMR spectrometric analysis
T1 sequence (whole entry): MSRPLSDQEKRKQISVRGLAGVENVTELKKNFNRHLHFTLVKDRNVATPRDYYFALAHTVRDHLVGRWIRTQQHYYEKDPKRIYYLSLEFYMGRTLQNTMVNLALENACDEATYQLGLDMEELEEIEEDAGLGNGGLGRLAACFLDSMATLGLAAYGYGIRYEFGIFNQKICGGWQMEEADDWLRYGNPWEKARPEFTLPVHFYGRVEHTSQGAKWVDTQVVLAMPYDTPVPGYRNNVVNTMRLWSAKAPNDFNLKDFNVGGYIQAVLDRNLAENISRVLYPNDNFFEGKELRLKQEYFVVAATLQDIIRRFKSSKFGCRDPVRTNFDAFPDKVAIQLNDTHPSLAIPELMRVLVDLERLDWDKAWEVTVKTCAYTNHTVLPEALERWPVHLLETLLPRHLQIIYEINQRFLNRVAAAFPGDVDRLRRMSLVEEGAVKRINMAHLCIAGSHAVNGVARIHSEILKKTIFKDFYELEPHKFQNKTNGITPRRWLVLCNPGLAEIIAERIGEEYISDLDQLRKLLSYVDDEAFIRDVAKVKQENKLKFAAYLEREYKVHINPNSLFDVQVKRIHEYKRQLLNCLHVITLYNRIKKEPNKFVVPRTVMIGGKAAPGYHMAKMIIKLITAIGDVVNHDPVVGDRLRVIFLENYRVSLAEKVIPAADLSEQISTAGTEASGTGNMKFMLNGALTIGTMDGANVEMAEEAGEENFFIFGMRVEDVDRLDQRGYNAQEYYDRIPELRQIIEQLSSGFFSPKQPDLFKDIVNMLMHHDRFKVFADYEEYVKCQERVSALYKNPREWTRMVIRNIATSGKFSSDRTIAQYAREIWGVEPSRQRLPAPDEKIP

[2] = target: T2, Peroxiredoxin-5, mitochondrial (Homo sapiens) (UniProt P30044); experiment: Binding affinity to human PRDX5 expressed in Escherichia coli by STD NMR spectrometric analysis
T2 sequence (whole entry): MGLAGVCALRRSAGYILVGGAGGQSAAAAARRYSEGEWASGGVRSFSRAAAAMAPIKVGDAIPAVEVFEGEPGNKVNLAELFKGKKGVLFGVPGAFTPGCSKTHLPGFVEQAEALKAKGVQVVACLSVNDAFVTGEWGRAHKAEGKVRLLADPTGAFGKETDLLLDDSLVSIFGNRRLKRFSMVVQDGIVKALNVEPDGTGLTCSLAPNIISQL

[3] = target: T1, Glycogen phosphorylase, muscle form (Oryctolagus cuniculus); experiment: Binding affinity to rabbit muscle glycogen phosphorylase measured for 0.5 to 4 secs by STD NMR spectrometric analysis
[4] = target: T2, Peroxiredoxin-5, mitochondrial (Homo sapiens); experiment: Binding affinity to human PRDX5 expressed in Escherichia coli at ligand/protein ratio 120 measured over 0.5 to 4 secs by STD NMR spectrometric analysis
[5] = target: T2, Peroxiredoxin-5, mitochondrial (Homo sapiens); experiment: Binding affinity to human PRDX5 expressed in Escherichia coli at ligand/protein ratio 50 and 240 measured over 2 secs by STD NMR spectrometric analysis
[6] = target: Mitogen-activated protein kinase 3 (Homo sapiens) (UniProt P27361); experiment: Binding affinity to ERK1 (unknown origin) expressed in Escherichia coli by STD NMR spectrometric analysis
Sequence of Mitogen-activated protein kinase 3 (Homo sapiens) (P27361 whole entry): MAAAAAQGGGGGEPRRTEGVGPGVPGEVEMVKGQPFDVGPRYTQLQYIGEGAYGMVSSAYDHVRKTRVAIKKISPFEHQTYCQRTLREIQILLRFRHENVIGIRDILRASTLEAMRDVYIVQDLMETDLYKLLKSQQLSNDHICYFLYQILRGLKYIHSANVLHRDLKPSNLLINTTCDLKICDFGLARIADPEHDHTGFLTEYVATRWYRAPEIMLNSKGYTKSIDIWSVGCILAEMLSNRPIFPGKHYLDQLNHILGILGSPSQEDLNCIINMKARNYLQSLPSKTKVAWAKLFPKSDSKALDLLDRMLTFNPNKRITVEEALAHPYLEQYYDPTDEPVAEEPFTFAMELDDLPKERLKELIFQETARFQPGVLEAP

How did the Activity [1] turn out when Nc1nc2ncnc-2c[nH]1 was run?
Its Activity is “Active”.

Which Activity [2] does the source give for Oc1ccccc1Cc1ccccc1O here?
The Activity was “Active”.

Which Activity [3] does the source give for c1ccc2[nH]ccc2c1 here?
Its Activity is “Active”.

O=C(O)c1cnc2ccccc2c1 was tested. Which Activity [1] did it give?
The Activity was “Active”.

Which Activity [4] does the source give for Cc1ccc(O)c(O)c1 here?
Its Activity is “Active”.

What about the Activity [5] of the same compound?
Its Activity is “Active”.

Which Activity [1] does the source give for c1cnc2[nH]ccc2c1 here?
Its Activity is “Active”.

And the Activity [6]?
Its Activity is “Active”.

Which Activity [1] does the source give for Oc1ccccc1-c1ccccc1 here?
The Activity was “Active”.
